{
  "source": "patent US20060188921A1",
  "about": "“Methods for diagnosing and treating systemic lupus erythematosus disease and compositions thereof” (Wyeth, priority 2001, published 2006)",
  "system": "whole kidney samples, approximately 11,000 murine genes",
  "experiment": "Kidney gene expression on oligonucleotide arrays in murine model of autoimmune kidney disease (untreated, rapamycin-treated, anti-B7-treated)",
  "format": "in vivo, NZB/NZW F1 mice",
  "details": "Example 2(A); normalized = difference in expression of less than five versus untreated asymptomatic mice",
  "experimental": "NZB/NZW F1 (B/W) mice develop an autoimmune kidney disease that is analogous to human systemic erythematosus. Mice, aged at intervals from 12 weeks (asymptomatic) to 42 weeks (diseased) were chosen to mimic the clinical presentation of patients with established SLE. By seven months of age, mice begin to develop nephritis characterized by proteinuria, anti-DNA antibody production and histopathologic changes in the kidney. […]\nLabeled RNA was prepared from clones containing a T7 RNA polymerase promoter site by incorporating labeled ribonucleotides in an in vitro transcription (IVT) reaction. […] RNA was concentrated and then quantitated by spectrophotometry. […]\nThe labeled and fragmented RNA probes were diluted in 1×MES buffer, BIO948, Bio C, B cre, 100 μg/ml herring sperm DNA, and 50 μg/ml acetylated BSA. […] When biotin-labeled RNA was used, the hybridized RNA was stained with a streptavidin-phycoerythrin conjugate (Molecule Probes, Eugene, Oreg.) prior to reading. […] The arrays were again washed and stained with streptavidin SSPE-T prior to being reading. The arrays were read using a scanning confocal microscope made for Affymetrix by Molecular Dynamics (commercially available through Affymetrix, Santa Clara, Calif.). […]",
  "data": [
    {"smiles": "CO[C@H]1C[C@@H]2CC[C@@H](C)[C@@](O)(O2)C(=O)C(=O)N2CCCC[C@H]2C(=O)O[C@H]([C@H](C)C[C@@H]2CC[C@@H](O)[C@H](OC)C2)CC(=O)[C@H](C)/C=C(\\C)[C@@H](O)[C@@H](OC)C(=O)[C@H](C)C[C@H](C)/C=C/C=C/C=C/1C", "note": "[rapamycin]", "values": [
      {"measurement": "number of genes not normalized by rapamycin treatment", "result": 23, "unit": "genes"}
    ]}
  ]
}
